Source: patent US7803764B2, “Amphipathic glycopeptides” (The Arizona Board of Regents on Behalf of the University of …, priority 2004, dated 2010)
Entries after “also recorded” stand apart in the source; their conditions may differ.

Tests used:
[1] = helicity by circular dichroism; type: physicochemical; conditions: for % α-helicity: CD, SDS micelles (30 mM), pH = 7.0, 18° C.
Protocol: Circular Dichroism. All of the circular dichroism experiments were carried out on Aviv Associates model 60DS using an Endcal Model RTE4DD water circulator as a temperature-control vehicle. The instrument was calibrated by using d-10-camphorsulphonic acid. The spectra were recorded between 200 and 250 nm by using the continuous mode with a 1.5 nm bandwidth, a three second response and a scan step of 0.5 nm in a cell with a path length of 0.1 cm. Three or five scans were accumulated and averaged for each spectrum. Glycopeptide stock solutions were prepared by weighing the required amount, using Cahn/Ventron Instruments Model 21 automatic analytical electrobalance, to make 1 mL of a 0.5-1.0 mM solution and the pH was adjusted to the desired value. Samples were prepared by diluting the stock solution to 70-80 μM. All observed spectra were baseline-subtracted and smoothed by adjacent average of 5 points using Microcal Origin Ver. 5.0 software (Microcal Software Inc, USA). The molar ellipticities were determined using the formula [θ]=[θ]obs·(MRW)/10·l·C, where [θ]obs observed ellipticity in millidegrees, MRW is the mean residue weight, l is the cell path length in centimeters and C is the glycopeptide concentration in mg/mL. The percent α-helicity was determined by using the formula % helix=[θ]n→π*/−40,000 (1−2.5/n)·100, where n represents the number of amide bonds (including the C-terminal amide) in the glycopeptide and [θ]n→π** is molar ellipticity of n→π* transition band at 222 nm.^55
Conformational Analysis by CD. Circular dichroism (CD) is a powerful and simple tool for identifying secondary structure in both peptides and proteins.^64 All the peptides were subjected to CD analysis in H2O, TFE-H2O mixtures, SDS micelles and phospholipid bicelles. In H2O, a negative band near 200 nm is observed that arises from the π→π* electronic transition and is typical of random coil peptides. […] This behavior is explained as nascent helices.^65 In these nascent helices, helix CD signals could be induced by the addition of TFE.^66 All the glycopeptides gave an increased helix CD signal in TFE. The percentage of helicity increases as TFE concentration increases, but reached a maximum at 30% TFE. The increase in helicity in TFE can be attributed to decreased competition by H2O for hydrogen bonding to the backbone amides. […] In the presence of SDS micelles and anionic bicelles, the band at 200 nm underwent a red shift (higher value) and an additional shoulder appears around 222 nm as a result of the n→π* transition. […] The negative maxima at 222 nm (n→π* transition band) is used to calculate the helical content of polypeptides and proteins. The accepted value for a peptide that is 100% helical is approximately −35,000. It was observed that changes in amplitude of the bands up to 30% depend on length of helix.^67 The amplitude increases as α-helical chain length increases. Therefore, one has to consider the importance of chain-length dependence of the α-helix CD in the quantitative treatment of helix content in proteins and polypeptides. The percentage of helicity is independent of SDS concentration and pH (data not shown). In the presence of zwitterionic bicelles all of the glycopeptides yielded CD spectra similar to that observed in H2O, but anionic bicelles forced them to become more helical. The intensities of the [θ]π→π* band and the [θ]n→π* band are expected to be almost equal for a perfect α-helical peptide. […] A modest blue shift and reduced intensity for the [θ]n→π* transition bands are observed for all the glycopeptides in TFE. […] The glycopeptides 9 (Pro/Glc) and 12 (Pro/Lactose), which differ only by the sugar moiety attached, adopt perfect helices in the presence of SDS micelles and in anionic bicelles. The disaccharide increased the percentage of helicity in all the solvents, relative to the monosaccharide. […] It is remarkable to note that a single amino acid mutation at position 6 produced profound changes in the CD spectra. […]

water solubility = conditions: H2O
δ opioid receptor = δ opioid receptor (Homo sapiens, UniProt P41143); assay: opioid receptor binding, δ receptor
Chain of δ opioid receptor (P41143 whole entry): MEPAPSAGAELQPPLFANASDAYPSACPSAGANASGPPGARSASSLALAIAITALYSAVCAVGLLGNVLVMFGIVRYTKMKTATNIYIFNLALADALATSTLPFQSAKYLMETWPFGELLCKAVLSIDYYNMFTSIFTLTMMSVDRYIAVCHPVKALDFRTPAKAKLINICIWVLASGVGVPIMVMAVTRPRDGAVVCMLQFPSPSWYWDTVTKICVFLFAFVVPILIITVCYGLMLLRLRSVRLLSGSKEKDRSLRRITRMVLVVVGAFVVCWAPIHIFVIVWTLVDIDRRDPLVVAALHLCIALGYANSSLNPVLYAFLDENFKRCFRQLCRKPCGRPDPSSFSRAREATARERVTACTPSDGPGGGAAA

[2] = in vivo antinociception after i.c.v. administration; set-up: species or system mice; conditions: for A50 i.c.v.: antinociception
μ opioid receptor = μ opioid receptor (Homo sapiens, UniProt P35372); assay: opioid receptor binding, μ receptor
Chain of μ opioid receptor (P35372 whole entry): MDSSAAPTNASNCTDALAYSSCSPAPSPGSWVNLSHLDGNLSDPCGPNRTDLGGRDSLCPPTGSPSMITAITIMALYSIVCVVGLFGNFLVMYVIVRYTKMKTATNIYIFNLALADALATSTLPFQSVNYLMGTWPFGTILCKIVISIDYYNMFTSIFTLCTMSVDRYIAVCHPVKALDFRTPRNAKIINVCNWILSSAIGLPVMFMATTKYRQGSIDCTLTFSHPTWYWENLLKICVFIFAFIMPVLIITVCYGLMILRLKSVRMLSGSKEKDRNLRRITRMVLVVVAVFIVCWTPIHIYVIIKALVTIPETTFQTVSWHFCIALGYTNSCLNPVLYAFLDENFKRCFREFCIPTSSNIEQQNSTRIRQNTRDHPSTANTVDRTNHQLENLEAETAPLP

[3] = Plasmon-waveguide resonance (PWR) binding to lipid bilayer; conditions: egg PC bilayer, 25° C., read-out: dissociation constant KD for lipid bilayer
Protocol: Plasmon-waveguide resonance (PWR) spectroscopy. The PWR instrument used for these experiments was Aviv Beta prototype version device obtained from Proterion Corp. (Piscataway, N.J.) having a spectral resolution of 1 millidegree. Self-assembled so lid-supported lipid membranes were prepared according to the method used for the formation of freely suspended lipid bilayers.^62 This involves spreading a small amount of lipid solution across an orifice in a Teflon sheet that separates the thin dielectric film (SiO2) from the aqueous phase. The hydrophilic surface of hydrated SiO2 attracts the polar groups of the lipid molecules, thus inducing an initial orientation of the lipid molecules, with the hydrocarbon chains pointing toward the droplet of excess lipid solution. The next steps of bilayer formation, induced by adding aqueous buffer to the sample compartment of the PWR cell, involve a thinning process and the formation of a plateau-Gibbs border of lipid solution that anchors the membrane to the Teflon spacer. In the present experiments, the lipid films were formed from a solution containing 5 mg/ml egg phosphatidylcholine (PC) in squalene/butanol/methanol (0.05:9.5:0.5, v/v). […] Aliquots of the glycosylated peptides, dissolved in deionized water, were injected stepwise in the PWR cell sample and the signal monitored until equilibrium was reached (PWR signal steady). […]

[4] = blood-brain barrier uptake / penetration; conditions: mice
[5] = helicity by NMR αCH chemical shift index; type: physicochemical
Protocol: NMR Spectroscopy. All NMR spectra were recorded on a Bruker DRX600 600 MHz spectrometer. Glycopeptide concentration for the NMR experiments varied from 2-3 mM. The glycopeptides were prepared in TFE-water solution by dissolving the peptide in 0.6 ml solution of a premixed 30% TFE-water mixture. The micelle samples were prepared by dissolving the glycopeptide and 100 equivalent of perdeuterated SDS in 0.6 ml of H2O/D2O (9:1 ratio by volume). Bicelles were produced from deuterated phospholipids. The zwitterionic bicelles were made by mixing the short chain phospholipid dihexanoyl-sn-glycero-3-phosphatidylcholine-d22 (DHPC) and the long chain 1,2-dimyristoyl-sn-glycero-3-phosphatidylcholine-d54 (DMPC) in the molar ratio of 2:1 in H2O. The […] were prepared by substituting 10 mol % of 1,2-dimyristoyl-sn-glycero-3-phospho-1-glycerol-d54 (DMPG) for DMPC. The glycopeptide to bicelle ratio was 1:25. After the glycopeptide was added to the bicelle solution, the system was submitted to a series o f three freeze/thaw/slight vortex shaking cycles. The pH of the each sample was adjusted to 4.5 by using DCl or NaOD as necessary. TSP (3-(trimethylsilyl)-d4-propionic acid) was added as an internal standard. The experiments in F3CCD2OD/H2O mixtures were at 293 K and for experiments in micelles/bicelles were at 298 or 311 K. Two-dimensional double quantum filtered correlation (DQF-COSY), rotating-frame Overhauser enhancement^56 (ROESY), Nuclear Overhauser enhancement^57 (NOESY), and total correlation spectra^58 (TOCSY) were acquired using standard pulse sequences and processed using XWINNMR (Bruker Inc) and FELIX2000 (Accelrys Inc, San Diego, Calif.), Mixing times for TOCSY spectra were either 80 or 100 ms. Mixing times for ROESY spectra were 150 or 250 ms, and for NOESY spectra were 200 or 300 ms. All experiments were 750 increments in t1, 16/32/64 scans each, 1.5 s relaxation delay, size 2 or 4K, and the spectral processing was with shifted sine bell window multiplications in both dimensions.
αCH Chemical Shift Index. […] At this point there is no accepted random coil αCH values for glycosylated serine, CSI values for this position are uncertain. The conformational shift values for all solvents were obtained using the random coil values described by Wright and co-workers.^72 Although, these reference shifts were obtained at pH=5.0 at 4.2° C., they appear to be very insensitive to the conditions, as very small deviations (±0.04) were observed when random coil values are obtained at pH=7.0 at 35° C. by Wuthrich and co-workers.^68 The quantification of secondary structure based on αCH chemical shifts is neglected in the literature because various contributions cannot be strictly accounted for, such as electrostatic effects, ring current shifts, and other magnetic anisotropies. However, it is possible to make qualitative comparison of helical content between closely related (glyco)peptides. Since the 3rd generation glycopeptides differ by only one amino acid at position 6, the helical content was obtained based on the αCH chemical shift values (Table 3). The method described by Gierasch and co-workers^69a was used. First, the average conformational shift was calculated for each glycopeptide by adding all upfield shifts in the helical regions and dividing by the total number of peptide bonds. Then, to obtain the overall helical content for each glycopeptide, the average conformational shift was divided by 0.35 ppm, which was assigned for 100% helicity. Since, there are no random coil values available for β-Alanine and glycosylated serine residues, they were not included in the calculation. The helicogenic Aib residue lacks an α-proton, and there was no correction included in the calculation for the helicity provided by Aib residue. The helical content obtained by this method correlated with the helical content obtained by CD. […]

Structure (SMILES)	% α-helicity [1] [%]	water solubility (water solubility)	IC50 (δ opioid receptor) [nM]	A50 i.c.v. ([2]; i.c.v., mice) [nmol]	IC50 (μ opioid receptor) [nM]	further results
CC(C)C[C@H](NC(=O)[C@H](C)NC(=O)[C@H](CC(N)=O)NC(=O)[C@H](Cc1ccccc1)NC(=O)[C@H](Cc1c[nH]c2ccccc12)NC(=O)[C@H](CCCCN)NC(=O)[C@H](CO[C@@H]1O[C@H](CO)[C@@H](O)[C@H](O)[C@H]1O)NC(=O)[C@H](C)NC(=O)[C@H](CC(C)C)NC(=O)[C@H](CCC(=O)O)NC(=O)CNC(=O)[C@H](CC(C)C)NC(=O)[C@H](Cc1ccccc1)NC(=O)CNC(=O)[C@H](NC(=O)[C@@H](N)Cc1ccc(O)cc1)[C@H](C)O)C(=O)N[C@@H](CCC(=O)O)C(N)=O (relative stereo) [Glycopeptide 1, YtGFLGELAS*KWFNALE]	85	H2O insoluble	–	–	–	–
CC(C)C[C@H](NC(=O)[C@H](C)NC(=O)[C@H](CC(N)=O)NC(=O)[C@H](Cc1ccccc1)NC(=O)[C@H](Cc1c[nH]c2ccccc12)NC(=O)[C@H](CCCCN)NC(=O)[C@H](CO[C@@H]1O[C@H](CO)[C@@H](O)[C@H](O)[C@H]1O)NC(=O)[C@H](C)NC(=O)[C@H](CC(C)C)NC(=O)[C@H](CCC(=O)O)NC(=O)CNC(=O)[C@H](CC(C)C)NC(=O)[C@H](Cc1ccccc1)NC(=O)CNC(=O)[C@H](NC(=O)[C@@H](N)Cc1ccc(O)cc1)[C@H](C)O)C(=O)N[C@@H](CCC(=O)O)C(=O)N[C@@H](CO[C@@H]1O[C@H](CO)[C@@H](O)[C@H](O)[C@H]1O)C(N)=O (relative stereo) [Glycopeptide 2, YtGFLGELAS*KWFNALES*]	67	appreciable water solubility; also recorded: significant solubility in water	9.5	0.27	144	receptor selectivity (in words) (δ opioid receptor; δ versus μ, receptor binding assays): somewhat δ-selective; potency relative to morphine ([2]; i.c.v. administration, more potent than morphine): roughly 18 times; A50 value after i.c.v. administration ([2]; i.c.v., mice): 120 pmoles per mouse
CC(C)C[C@H](NC(=O)[C@H](C)NC(=O)[C@H](CC(N)=O)NC(=O)[C@H](Cc1ccccc1)NC(=O)[C@H](Cc1c[nH]c2ccccc12)NC(=O)[C@H](CCCCN)NC(=O)[C@H](CO[C@@H]1O[C@H](CO)[C@@H](O)[C@H](O)[C@H]1O)NC(=O)[C@H](C)NC(=O)[C@H](CC(C)C)NC(=O)[C@H](CCC(=O)O)NC(=O)CNC(=O)[C@H](CC(C)C)NC(=O)[C@H](Cc1ccccc1)NC(=O)CNC(=O)[C@H](NC(=O)[C@@H](N)Cc1ccc(O)cc1)[C@H](C)O)C(=O)N[C@@H](CCC(=O)O)C(=O)N[C@@H](CO[C@@H]1O[C@H](CO)[C@@H](O)[C@H](O)[C@H]1O)C(=O)N[C@@H](Cc1ccccc1)C(N)=O (relative stereo) [Glycopeptide 3, YtGFLGELAS*KWFNALES*F]	65	H2O insoluble	–	–	–	–
CC(C)C[C@H](NC(=O)[C@H](C)NC(=O)[C@H](CC(N)=O)NC(=O)[C@H](Cc1ccccc1)NC(=O)[C@H](Cc1c[nH]c2ccccc12)NC(=O)[C@H](CCCCN)NC(=O)[C@H](CO[C@@H]1O[C@H](CO)[C@@H](O)[C@H](O)[C@H]1O)NC(=O)[C@H](C)NC(=O)[C@H](CC(C)C)NC(=O)[C@H](CCC(=O)O)NC(=O)CNC(=O)[C@H](CC(C)C)NC(=O)[C@H](Cc1ccccc1)NC(=O)CNC(=O)[C@H](NC(=O)[C@@H](N)Cc1ccc(O)cc1)[C@H](C)O)C(=O)N[C@@H](CCC(=O)O)C(=O)N[C@@H](CO[C@@H]1O[C@H](CO)[C@@H](O)[C@H](O)[C@H]1O)C(=O)N[C@@H](Cc1ccccc1)C(=O)N[C@@H](Cc1c[nH]c2ccccc12)C(N)=O (relative stereo) [Glycopeptide 4, YtGFLGELAS*KWFNALES*FW]	82	H2O insoluble	–	–	–	–
CC(C)C[C@H](NC(=O)[C@H](CO[C@@H]1O[C@H](CO)[C@@H](O)[C@H](O)[C@H]1O)NC(=O)[C@H](CCCCN)NC(=O)[C@H](CC(C)C)NC(=O)[C@H](C)NC(=O)[C@H](CCCCN)NC(=O)[C@H](CCC(=O)O)NC(=O)C(C)(C)NC(=O)[C@H](CC(C)C)NC(=O)[C@H](CC(N)=O)NC(=O)[C@@H]1CCCN1C(=O)[C@H](CC(C)C)NC(=O)[C@H](Cc1ccccc1)NC(=O)CNC(=O)[C@H](NC(=O)[C@@H](N)Cc1ccc(O)cc1)[C@H](C)O)C(N)=O (relative stereo) [Glycopeptide 9, YtGFLPNLBEKALKS*L]	–	–	6.15	0.030	90.8	Kd [3]: 7 to 8 nM; BBB uptake [4]: 0.390 microliters per min per gram of cortex; blood brain barrier penetration (in words) [4]: efficiently cross the blood brain barrier; also recorded: much better BBB penetration rates; also recorded: best BBB penetration; % α-helicity by NMR ([5]; solvent Bicelle A): 44%; % α-helicity by NMR ([5]; solvent H2O): 20%; % α-helicity by NMR ([5]; solvent SDS micelles): 46%; % α-helicity by NMR ([5]; solvent TFE): 30%; % α-helicity by CD ([1]; solvent Bicelle A (anionic bicelles)): 25%; % α-helicity by CD ([1]; solvent H2O): >1%; % α-helicity by CD ([1]; solvent SDS micelles): 24%; % α-helicity by CD ([1]; solvent TFE): 18%
